In general, IC50 refers to the concentration that gives 50% inhibition. As usually defined, the inhibition is the share of the control response that was lost under treatment.

Test [1] has as its system MKN45 cells. In words: Cell proliferation assay (SRB, 72 h). In kind it is cell-based. The following applies: MKN-45, MKN45 human gastric cancer cell line with constitutively active c-Met. As to the method:
Cells were seeded in 96-well tissue culture plates. On the next day, the cells were exposed to various concentrations of compounds and further cultured for 72 h. Cell proliferation was then determined using sulforhodamine B (SRB, Sigma, St. Louis, MO, USA). The IC50 values were calculated by concentration-response curve fitting using the four-parameter method.

For test [2], the target named is c-Met kinase (Homo sapiens, UniProt P08581). The test can be described thus: c-Met kinase assay (ELISA, purified recombinant protein). As to conditions: for IC50: ELISA, poly(Glu,Tyr)4:1 substrate, two separate experiments; for inhibition at 10 µM / c-Met inhibition rate @10 μM: compound at 10 μM; for inhibition at 10 µM: read-out: c-Met inhibition rate @10 μM; for inhibition at 1 µM: read-out: c-Met inhibition rate @1 μM. The class given is biochemical. As to the method: The effects of indicated compound on the activities of c-Met kinases were determined using enzyme-linked immunosorbent assays (ELISAs) with purified recombinant proteins. Briefly, 20 μg/mL poly (Glu,Tyr)4:1 (Sigma, St. Louis, MO, USA) was pre-coated in 96-well plates as a substrate. A 50-μL aliquot of 10 μmol/L ATP solution diluted in kinase reaction buffer (50 mmol/L HEPES [pH 7.4], 50 mmol/L MgCl2, 0.5 mmol/L MnCl2, 0.2 mmol/L Na3VO4, and 1 mmol/L DTT) was added to each well; 1 μL of various concentrations of indicated compound diluted in 1% DMSO (v/v) (Sigma) were then added to each reaction well. DMSO (1%, v/v) was used as the negative control. The kinase reaction was initiated by the addition of purified c-Met tyrosine kinase proteins diluted in 49 μL of kinase reaction buffer. After incubation for 60 min at 37 °C, the plate was washed three times with phosphate-buffered saline (PBS) containing 0.1% Tween 20 (T-PBS). Anti-phosphotyrosine (PY99) antibody (100 μL; 1:500, diluted in 5 mg/mL BSA T-PBS) was then added. After a 30-min incubation at 37 °C, the plate was washed three times, and 100 μL horseradish peroxidase-conjugated goat anti-mouse IgG (1:2000, diluted in 5 mg/mL BSA T-PBS) was added. The plate was then incubated at 37 °C for 30 min and washed 3 times. A 100-μL aliquot of a solution containing 0.03% H2O2 and 2 mg/ml o-phenylenediamine in 0.1 mol/L citrate buffer (pH 5.5) was added. The reaction was terminated by the addition of 50 μL of 2 mol/L H2SO4 as the color changed, and the plate was analyzed using a multi-well spectrophotometer (SpectraMAX 190, Molecular Devices, Sunnyvale, CA, USA) at 490 nm. […] The IC50 values were calculated from the inhibition curves in two separate experiments.
Sequence of c-Met kinase (P08581 25-1390): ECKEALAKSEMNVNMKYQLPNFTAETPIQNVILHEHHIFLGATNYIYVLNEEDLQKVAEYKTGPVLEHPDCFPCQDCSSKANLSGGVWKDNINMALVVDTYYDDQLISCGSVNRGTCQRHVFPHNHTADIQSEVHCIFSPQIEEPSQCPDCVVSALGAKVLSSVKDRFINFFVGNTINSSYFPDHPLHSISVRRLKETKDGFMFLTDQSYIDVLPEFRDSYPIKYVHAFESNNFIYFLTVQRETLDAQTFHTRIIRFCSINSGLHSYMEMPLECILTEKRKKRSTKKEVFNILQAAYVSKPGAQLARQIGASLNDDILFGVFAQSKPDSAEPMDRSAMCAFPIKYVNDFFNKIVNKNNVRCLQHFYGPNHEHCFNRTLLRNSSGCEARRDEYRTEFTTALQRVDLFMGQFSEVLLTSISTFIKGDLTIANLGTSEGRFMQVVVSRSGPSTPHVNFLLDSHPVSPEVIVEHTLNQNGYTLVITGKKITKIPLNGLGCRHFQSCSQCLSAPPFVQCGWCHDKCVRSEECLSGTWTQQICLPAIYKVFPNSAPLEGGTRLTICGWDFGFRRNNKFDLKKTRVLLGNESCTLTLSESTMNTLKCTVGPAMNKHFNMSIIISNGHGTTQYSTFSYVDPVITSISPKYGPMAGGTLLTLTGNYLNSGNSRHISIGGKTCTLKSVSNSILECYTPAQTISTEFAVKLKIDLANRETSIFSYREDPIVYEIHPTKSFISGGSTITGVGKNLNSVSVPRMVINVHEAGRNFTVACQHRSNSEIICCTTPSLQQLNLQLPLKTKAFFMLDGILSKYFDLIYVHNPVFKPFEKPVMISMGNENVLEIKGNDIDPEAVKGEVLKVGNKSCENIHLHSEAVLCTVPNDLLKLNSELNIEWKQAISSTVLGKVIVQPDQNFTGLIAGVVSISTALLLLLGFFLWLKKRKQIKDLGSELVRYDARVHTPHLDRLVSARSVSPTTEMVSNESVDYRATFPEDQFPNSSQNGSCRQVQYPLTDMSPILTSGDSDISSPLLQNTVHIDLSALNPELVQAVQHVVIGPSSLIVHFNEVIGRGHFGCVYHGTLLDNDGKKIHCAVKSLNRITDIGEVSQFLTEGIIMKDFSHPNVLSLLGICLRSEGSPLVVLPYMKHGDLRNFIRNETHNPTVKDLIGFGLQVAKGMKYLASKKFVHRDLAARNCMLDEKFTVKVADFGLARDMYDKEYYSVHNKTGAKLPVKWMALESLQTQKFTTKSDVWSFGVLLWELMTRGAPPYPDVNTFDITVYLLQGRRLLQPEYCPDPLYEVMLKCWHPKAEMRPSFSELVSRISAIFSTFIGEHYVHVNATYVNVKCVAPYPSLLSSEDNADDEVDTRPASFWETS
Background: ELISA stands for enzyme-linked immunosorbent assay.

The subject of test [3] is c-Met. The following applies: in Figure 2; cited from earlier work.
The mark [4] stands for this setting: printed in the c-Met IC50 column.
[5] abbreviates: compound at 1 μM, printed in the c-Met IC50 column.

As for `CCOc1ccn(-c2ccc(F)cc2)c(=O)c1C(=O)Nc1ccc(Oc2ccnc(N)c2Cl)c(F)c1` [BMS-777607, N-(4-(2-amino-3-chloropyridin-4-yloxy)-3-fluorophenyl)-4-ethoxy-1-(4-fluorophenyl)-2-oxo-1,2-dihydropyridine-3-carboxamide, reference compound], the IC50 is 290 ± 20 nM in test [1], 3.7 ± 1.3 nM in test [2] and 3.9 nM in test [3].

For the compound `NC(=O)c1nccc(Oc2ccc(NC(=O)C3CCCN(c4ccc(F)cc4)C3=O)cc2F)c1Cl` (centres unmarked) [Compound 15a, 3-Chloro-4-(2-fluoro-4-(1-(4-fluorophenyl)-2-oxopiperidine-3-carboxamido)phenoxy)picolinamide], in test [2] (setting [4]), the inhibition at 10 µM was found to be 63.9%.

For `NC(=O)c1nccc(Oc2ccc(NC(=O)C3(Cl)CCCN(c4ccc(F)cc4)C3=O)cc2F)c1Cl` (centres unmarked) [Compound 15b, 3-Chloro-4-(4-(3-chloro-1-(4-fluorophenyl)-2-oxopiperidine-3-carboxamido)-2-fluorophenoxy)-picolinamide], in test [2] (setting [5]), the inhibition at 1 µM came to 38.7%. Moreover, in test [2] (setting [4]), the inhibition at 10 µM turned out to be 90.2%.

Take `COc1ccc(CNc2nccc(Oc3ccc(NC(=O)C4CCCN(c5ccc(F)cc5)C4=O)cc3F)n2)cc1` (centres unmarked) [Compound 18a, N-(3-fluoro-4-((2-((4-methoxybenzyl)amino)pyrimidin-4-yl)oxy)phenyl)-1-(4-fluorophenyl)-2-oxo-piperidine-3-carboxamide]: in test [2] (setting [4]), the inhibition at 10 µM worked out at 28.4%.

Consider `COc1ccc(CNc2nccc(Oc3ccc(NC(=O)C4(Cl)CCCN(c5ccc(F)cc5)C4=O)cc3F)n2)cc1` (centres unmarked) [Compound 18b, 3-Chloro-N-(3-fluoro-4-((2-((4-methoxybenzyl)amino)pyrimidin-4-yl)oxy)phenyl)-1-(4-fluorophenyl)-2-oxopiperidine-3-carboxamide], for which the inhibition at 10 µM in test [2] (setting [4]) worked out at 10%.

Turning to `Nc1nccc(Oc2ccc(NC(=O)C3CCCN(c4ccc(F)cc4)C3=O)cc2F)n1` (centres unmarked) [Compound 19a, N-(4-((2-aminopyrimidin-4-yl)oxy)-3-fluorophenyl)-1-(4-fluorophenyl)-2-oxopiperidine-3-carbox-amide], in test [2] (setting [5]), the inhibition at 1 µM was 27.5%. In test [2] (setting [4]), the inhibition at 10 µM stood at 59.1%.

As for `Nc1nccc(Oc2ccc(NC(=O)C3(Cl)CCCN(c4ccc(F)cc4)C3=O)cc2F)n1` (centres unmarked) [Compound 19b, N-(4-((2-aminopyrimidin-4-yl)oxy)-3-fluorophenyl)-3-chloro-1-(4-fluorophenyl)-2-oxopiperidine-3-carboxamide], the inhibition at 1 µM in test [2] (setting [5]) worked out at 28.3%. Further, in test [2] (setting [4]), the inhibition at 10 µM was found to be 52.5%.

Take `COc1cc2nccc(Oc3ccc(NC(=O)C4CCCN(c5ccc(F)cc5)C4=O)cc3F)c2cc1OC` (centres unmarked) [Compound 20a, N-(4-((6,7-dimethoxyquinolin-4-yl)oxy)-3-fluorophenyl)-1-(4-fluorophenyl)-2-oxopiperidine-3-carbox-amide]: in test [2] (setting [4]), the inhibition at 10 µM turned out to be 38.4%.

With `COc1cc2nccc(Oc3ccc(NC(=O)C4(Cl)CCCN(c5ccc(F)cc5)C4=O)cc3F)c2cc1OC` (centres unmarked) [Compound 20b, 3-Chloro-N-(4-((6,7-dimethoxyquinolin-4-yl)oxy)-3-fluorophenyl)-1-(4-fluorophenyl)-2-oxopiperidine-3-carboxamide], 570 ± 40 nM corresponded to half-maximal inhibition in test [1] (IC50).

`COc1cc2nccc(Oc3ccc(NC(=O)C4(C)CCCN(c5ccc(F)cc5)C4=O)cc3F)c2cc1OC` (centres unmarked) [Compound 20c, N-(4-((6,7-dimethoxyquinolin-4-yl)oxy)-3-fluorophenyl)-1-(4-fluorophenyl)-3-methyl-2-oxopiperidine-3-carboxamide]: the IC50 in test [1] was 650 ± 130 nM; in test [2], 11.2 ± 4.1 nM.

As to `CCC1(C(=O)Nc2ccc(Oc3ccnc4cc(OC)c(OC)cc34)c(F)c2)CCCN(c2ccc(F)cc2)C1=O` (centres unmarked) [Compound 20d, N-(4-((6,7-dimethoxyquinolin-4-yl)oxy)-3-fluorophenyl)-3-ethyl-1-(4-fluorophenyl)-2-oxopiperidine-3-carboxamide], the results for the half-inhibitory concentration (IC50) in test [1] and in test [2] were 2950 ± 120 nM and 19.1 ± 4.5 nM, respectively.

As for `CCCCC1(C(=O)Nc2ccc(Oc3ccnc4cc(OC)c(OC)cc34)c(F)c2)CCCN(c2ccc(F)cc2)C1=O` (centres unmarked) [Compound 20e, N-(4-((6,7-dimethoxyquinolin-4-yl)oxy)-3-fluorophenyl)-3-butyl-1-(4-fluorophenyl)-2-oxopiperidine-3-carboxamide], the IC50 in test [1] came out at 16000 ± 800 nM; in test [2], 64 ± 10.8 nM.

For “N-(4-((7H-pyrrolo[2,3-d]pyrimidin-4-yl)oxy)-3-fluorophenyl)-1-(4-fluorophenyl)-2-oxopiperidine-3-carboxamide [Compound 17a]”, in test [2] (setting [5]), the “c-Met inhibition rate @1 μM” value is 41.9%@1 μM. Besides, in test [2] (setting [4]), the “c-Met inhibition rate @10 μM” value is 70.7%@10 μM.

Turning to “N-(4-((7H-pyrrolo[2,3-d]pyrimidin-4-yl)oxy)-3-fluorophenyl)-3-chloro-1-(4-fluorophenyl)-2-oxo-piperidine-3-carboxamide [Compound 17b]”, in test [2] (setting [4]), the “c-Met inhibition rate @10 μM” value was determined as 15.4%@10 μM.

The values above are taken from PMC6271681, “Discovery of Novel c-Met Inhibitors Bearing a 3-Carboxyl Piperidin-2-one Scaffold” (Molecules, 2014).
